Laboratory results taken from patent US10238670B2, “9-aminomethyl minocycline compounds and methods of use thereof in urinary tract infection (UTI) treatment” (Paratek Pharmaceuticals, Inc., priority 2016, dated 2019).

Tested on: E. coli isolates, including ESBL+ and quinolone resistance phenotypes
Assay: In vitro MIC, 2010 surveillance study of 4171 E. coli isolates
Type: cell-based

Structure (SMILES): CN(C)c1cc(CNCC(C)(C)C)c(O)c2c1C[C@H]1C[C@H]3[C@H](N(C)C)C(O)=C(C(N)=O)C(=O)[C@@]3(O)C(O)=C1C2=O [Compound 1, 9-[(2,2-dimethyl-propylamino)-methyl]-minocycline]
- isolates with an MIC value <4 μg/mL: > 97%
